Results published in patent US9808470B2, “Estrogenic components for use in the treatment of neurological disorders” (UNIVERSITE DE LIEGE, priority 2012, dated 2017).

Experiments:
Format in all cases: in vivo
[1] = test system: Microtubule-associated protein 2 (MAP2); experiment: Ex.4 therapeutic HIE rat model: MAP2 staining; settings: PND14
Experimental: The brain sections were processed for immunohistochemical detection of neuronal cytoskeletal disruption. For antigen retrieval, the sections were heated in 10 mmol/L citrate buffer (pH 6.0) at 100° C. for 10 minutes. Endogenous peroxidase activity was blocked with 3% hydrogen peroxide for 10 minutes and after a second blocking with 5% normal goat serum, the sections were incubated with anti-microtubule-associated protein 2 (MAP2) antibody, diluted 1:1000 (mouse monoclonal antibody; Sigma, St. Louis, Mo., US) 1 h at room temperature. After rinsing, biotinylated goat anti-mouse immunoglobulin G (Vector Laboratories, Burlingame, Calif.) was added, and antibody detection was performed with the avidin-biotin complex method (Vector Laboratories), with 3,3′-diaminobenzidine (DAB) as the chromogen. Following the reaction with DAB, the slides were washed, dehydrated, and coverslipped.
Samples were analyzed with the aid of an image scanner (Nanozoomer Virtual Microscopy, Hamamatsu, Tokyo, Japan) and the ImageJ software (NIH, US). The MAP2 positive areas in the ipsilateral and contralateral hemispheres were measured. The ratio of the MAP2 positive areas was calculated as the MAP2 positive area of the ipsilateral hemisphere divided by the MAP2 positive area of the contralateral hemisphere. The ratio of the MAP2 positive area in the Sham group was considered by default as 1.0.
(§1) To study the therapeutic effect of estetrol, newborn rat pups were assigned to one of the following 6 groups at postnatal day 7: sham group (n=29), vehicle group (n=20), 1 mg/kg E4 group (n=16), 5 mg/kg E4 group (n=19), 10 mg/kg day E4 (n=17) and 50 mg/kg day E4 group (n=15). At postnatal day 7 animals were anesthetized with isoflurane (induction, 3.0%; maintenance, 1.5%), and the rat pups from vehicle and E4 groups passed through surgery encompassing left common carotid artery double ligation and cut. After surgery, the pups were returned to their dams and allowed to recover for 1 hour. The pups were then placed in a humidified hypoxic in vivo cabinet (CoyLab). Hypoxia was produced by the inhalation of 11%-8% of oxygen balanced by nitrogen at decreased concentration of oxygen for 20 minutes, followed by inhalation of 8% oxygen and 92% nitrogen at constant concentration for 35 minutes. All the manipulations were performed at 37° C.
Upon retrieval from the hypoxia chamber the rat pups were injected intraperitoneally either by vehicle (vehicle group) or by E4 (1 mg/kg, 5 mg/kg, 10 mg/kg or 50 mg/kg) in accordance to the group assignment. The animals from the sham group went through similar procedures but proceeded neither left common carotid artery ligation and cut followed by hypoxia nor vehicle or estetrol administration. Rat pups recovered with their dams until being sacrificed at postnatal day 14.

O4-positive cells = experiment: Ex.6 IL-1β induced diffuse white matter injury mouse model: pre-oligodendrocyte maturation gene expression (qRT-PCR); settings: P5
Experimental: Experimental protocols were approved by the institutional guidelines of the Institut National de la Santé et de la Recherche Scientifique (Inserm, France), and met the guidelines for the United States Public Health Service's Policy on Humane Care and Use of Laboratory Animals (NIH, Bethesda, Md., USA). Experiments were performed using OF1 strain mice purchased from Charles River (L'Arbresle, France) and born in our animal facility. Animals were housed under a 12 h light-dark cycle, had access to food and water ad libitum. Sex was determined at birth and confirmed at sacrifice. To avoid any potential variability linked to sex to differences. only male pups were used. […]
Preparation of samples for quantitative reverse-transcriptase polymerase-chain reaction (qRT-PCR), primer design, and PCR protocol, were similar to that previously described (Favrais et al., 2011; Chhor et al., 2013). […] RNA quality and concentration were assessed by spectrophotometry with the Nanodrop™ apparatus (Thermoscientific, Wilmington, Del., USA). […] The relative quantities are expressed as the specific ratio between the gene of interest and Rpl13 or GAPDH. The data are presented as relative mRNA units with respect to control values (expressed as a fold-difference with respect to the mean of sham values).

[2] = Ex.4 therapeutic HIE rat model: rectal temperature; settings: E4 1, 5, 10, 50 mg/kg single ip dose after HI at PND7; 0, 2, 4 h after hypoxia
Experimental: The rectal temperature of the rat pups was measured with a multipurpose thermometer (BAT-10R, Physitemp Instruments Inc., Clifton, N.J., US) along with a rectal probe (RET-4, BioMedical Instruments, Zollnitz, Germany) at 0, 2, and 4 hours after exposure to hypoxic insult. To keep the variability of the temperature low, measurements of rectal temperature were made in a 25° C. room 15 min after removal of the pups from the nest (except the 1st post-hypoxic measurement which was done immediately). It has been shown that the rectal temperature corresponds very well to the brain core temperature (Thoresen et al. 1996. Arch Dis Child Fetal Neonatal 74: F3-F9, Yager et al. 1993. Pediatr Res 34: 525-529).
as §1, with “Hypoxia was produced by the inhalation of 11%-8% of oxygen balanced by nitrogen at decreased concentration of oxygen for 20 minutes, followed by inhalation of 8% oxygen and 92% nitrogen at constant concentration for 35 minutes. All the manipulations were performed at 37° C.” left out

Compound: C[C@]12CC[C@@H]3c4ccc(O)cc4CC[C@H]3[C@@H]1[C@@H](O)[C@@H](O)[C@@H]2O [E4, 1,3,5(10)-estratrien-3,15α,16α,17β-tetrol]
- ratio of MAP2-positive area (ipsilateral/contralateral) ([1]; 1 mg/kg E4 single ip dose after HI): 0.943±0.028
- ratio of MAP2-positive area (ipsilateral/contralateral) ([1]; 5 mg/kg E4 single ip dose after HI): 0.89±0.037
- ratio of MAP2-positive area (ipsilateral/contralateral) ([1]; 10 mg/kg E4 single ip dose after HI): 0.938±0.044
- ratio of MAP2-positive area (ipsilateral/contralateral) ([1]; 50 mg/kg E4 single ip dose after HI): 0.966±0.036
- IL-1β-induced up-regulation in ID2 expression (O4-positive cells; 5 mg/kg and 10 mg/kg E4 co-treatment): prevented
- expression of Hey2 (O4-positive cells; IL-1β+E4 5 mg/kg, vs IL-1β alone): trend to up-regulation
- rectal temperature [2]: did not affect the body temperature
